Measurements: the NIST ThermoML archive (doi:10.1021/acs.jced.8b00153)
Several values for one entry are separate records, joined by “and”; a condition that tells them apart may be missing. Equal entries are not always repeated. ± gives the expanded uncertainty stated by the source.

Settings: for surface tension liquid-gas: Drop volume; for viscosity / speed of sound / mass density / vapor or sublimation pressure: Liquid; for viscosity: Capillary tube (Ostwald / Ubbelohde) method; for speed of sound: Frequency=3 MHz, Single path-length method; for mass density: Vibrating tube method; for vapor or sublimation pressure: Ebulliometric method (Recirculating still)

CCc1ccco1 [2-ethylfuran]
Settings | surface tension liquid-gas [mN/m] | vapor or sublimation pressure [kPa]
278.15 K | 27.22 ± 0.25 | –
280.65 K | 26.91 ± 0.25 | –
283.15 K | 26.59 ± 0.25 | –
285.65 K | 26.31 ± 0.25 | –
288.15 K | 26.01 ± 0.25 | –
289.96 K | – | 4.96 ± 0.1
290.65 K | 25.62 ± 0.25 | –
292.18 K | – | 5.57 ± 0.1
293.15 K | 25.32 ± 0.25 | –
293.77 K | – | 6.05 ± 0.1
295.65 K | 25.09 ± 0.25 | –
295.94 K | – | 6.77 ± 0.1
297.39 K | – | 7.29 ± 0.1
298.15 K | 24.78 ± 0.25 | –
299.52 K | – | 8.105 ± 0.1
300.65 K | 24.43 ± 0.25 | –
301.86 K | – | 9.08 ± 0.1
303.15 K | 24.12 ± 0.25 | –
304.58 K | – | 10.35 ± 0.1
305.65 K | 23.81 ± 0.25 | –
306.32 K | – | 11.27 ± 0.1
308.15 K | 23.51 ± 0.25 | –
308.82 K | – | 12.64 ± 0.1
310.65 K | 23.22 ± 0.24 | –
312.73 K | – | 15.06 ± 0.1
313.15 K | 22.91 ± 0.24 | –

Settings | mass density | speed of sound [m/s] | viscosity [mPa·s]
278.15 K, 100 kPa | 920.97 ± 0.51 kg/m3 | 1281 ± 0.71 | 0.6327 ± 0.0065
280.65 K, 100 kPa | 918.26 ± 0.51 kg/m3 | 1270.8 ± 0.71 | 0.6126 ± 0.0064
283.15 K, 100 kPa | 915.55 ± 0.51 kg/m3 and 915.5 ± 0.22 kg/m3 | 1259.4 ± 0.71 | 0.5934 ± 0.0064
283.15 K, 2000 kPa | 917.27 ± 0.23 kg/m3 | – | –
283.15 K, 5000 kPa | 919.69 ± 0.23 kg/m3 | – | –
283.15 K, 7000 kPa | 921.41 ± 0.23 kg/m3 | – | –
283.15 K, 10000 kPa | 923.87 ± 0.23 kg/m3 | – | –
283.15 K, 15000 kPa | 927.84 ± 0.24 kg/m3 | – | –
283.15 K, 20000 kPa | 931.59 ± 0.24 kg/m3 | – | –
283.15 K, 25000 kPa | 935.19 ± 0.25 kg/m3 | – | –
283.15 K, 30000 kPa | 938.66 ± 0.25 kg/m3 | – | –
283.15 K, 35000 kPa | 942.04 ± 0.26 kg/m3 | – | –
283.15 K, 40000 kPa | 945.33 ± 0.26 kg/m3 | – | –
283.15 K, 45000 kPa | 948.5 ± 0.26 kg/m3 | – | –
283.15 K, 50000 kPa | 951.53 ± 0.26 kg/m3 | – | –
283.15 K, 55000 kPa | 954.61 ± 0.27 kg/m3 | – | –
283.15 K, 60000 kPa | 957.6 ± 0.27 kg/m3 | – | –
283.15 K, 65000 kPa | 960.38 ± 0.27 kg/m3 | – | –
285.65 K, 100 kPa | 912.83 ± 0.51 kg/m3 | 1248.7 ± 0.71 | 0.5733 ± 0.0063
288.15 K, 100 kPa | 910.1 ± 0.51 kg/m3 and 910.08 ± 0.22 kg/m3 | 1238.5 ± 0.71 | 0.556 ± 0.0062
288.15 K, 2000 kPa | 911.89 ± 0.23 kg/m3 | – | –
288.15 K, 5000 kPa | 914.37 ± 0.23 kg/m3 | – | –
288.15 K, 7000 kPa | 916.19 ± 0.23 kg/m3 | – | –
288.15 K, 10000 kPa | 918.68 ± 0.24 kg/m3 | – | –
288.15 K, 15000 kPa | 922.7 ± 0.24 kg/m3 | – | –
288.15 K, 20000 kPa | 926.63 ± 0.25 kg/m3 | – | –
288.15 K, 25000 kPa | 930.32 ± 0.25 kg/m3 | – | –
288.15 K, 30000 kPa | 933.89 ± 0.26 kg/m3 | – | –
288.15 K, 35000 kPa | 937.37 ± 0.26 kg/m3 | – | –
288.15 K, 40000 kPa | 940.66 ± 0.27 kg/m3 | – | –
288.15 K, 45000 kPa | 943.92 ± 0.27 kg/m3 | – | –
288.15 K, 50000 kPa | 947.13 ± 0.27 kg/m3 | – | –
288.15 K, 55000 kPa | 950.18 ± 0.27 kg/m3 | – | –
288.15 K, 60000 kPa | 953.28 ± 0.27 kg/m3 | – | –
288.15 K, 65000 kPa | 956.1 ± 0.27 kg/m3 | – | –
290.65 K, 100 kPa | 907.37 ± 0.51 kg/m3 | 1227.6 ± 0.71 | 0.5394 ± 0.0062
293.15 K, 100 kPa | 904.64 ± 0.51 kg/m3 and 904.65 ± 0.22 kg/m3 | 1216.7 ± 0.71 | 0.5214 ± 0.0061
293.15 K, 2000 kPa | 906.44 ± 0.23 kg/m3 | – | –
293.15 K, 5000 kPa | 909.05 ± 0.23 kg/m3 | – | –
293.15 K, 7000 kPa | 910.93 ± 0.23 kg/m3 | – | –
293.15 K, 10000 kPa | 913.5 ± 0.24 kg/m3 | – | –
293.15 K, 15000 kPa | 917.66 ± 0.24 kg/m3 | – | –
293.15 K, 20000 kPa | 921.69 ± 0.25 kg/m3 | – | –
293.15 K, 25000 kPa | 925.54 ± 0.26 kg/m3 | – | –
293.15 K, 30000 kPa | 929.07 ± 0.26 kg/m3 | – | –
293.15 K, 35000 kPa | 932.7 ± 0.27 kg/m3 | – | –
293.15 K, 40000 kPa | 936.06 ± 0.27 kg/m3 | – | –
293.15 K, 45000 kPa | 939.48 ± 0.27 kg/m3 | – | –
293.15 K, 50000 kPa | 942.66 ± 0.28 kg/m3 | – | –
293.15 K, 55000 kPa | 945.78 ± 0.28 kg/m3 | – | –
293.15 K, 60000 kPa | 948.91 ± 0.28 kg/m3 | – | –
293.15 K, 65000 kPa | 951.86 ± 0.28 kg/m3 | – | –
295.65 K, 100 kPa | 901.9 ± 0.51 kg/m3 | 1205.2 ± 0.71 | 0.5061 ± 0.0061
298.15 K, 100 kPa | 899.15 ± 0.51 kg/m3 and 899.11 ± 0.23 kg/m3 | 1194.9 ± 0.71 | 0.4917 ± 0.006
298.15 K, 2000 kPa | 901.01 ± 0.23 kg/m3 | – | –
298.15 K, 5000 kPa | 903.73 ± 0.23 kg/m3 | – | –
298.15 K, 7000 kPa | 905.65 ± 0.24 kg/m3 | – | –
298.15 K, 10000 kPa | 908.34 ± 0.24 kg/m3 | – | –
298.15 K, 15000 kPa | 912.57 ± 0.25 kg/m3 | – | –
298.15 K, 20000 kPa | 916.67 ± 0.25 kg/m3 | – | –
298.15 K, 25000 kPa | 920.61 ± 0.26 kg/m3 | – | –
298.15 K, 30000 kPa | 924.3 ± 0.27 kg/m3 | – | –
298.15 K, 35000 kPa | 928.03 ± 0.27 kg/m3 | – | –
298.15 K, 40000 kPa | 931.52 ± 0.28 kg/m3 | – | –
298.15 K, 45000 kPa | 934.92 ± 0.28 kg/m3 | – | –
298.15 K, 50000 kPa | 938.29 ± 0.28 kg/m3 | – | –
298.15 K, 55000 kPa | 941.41 ± 0.29 kg/m3 | – | –
298.15 K, 60000 kPa | 944.69 ± 0.29 kg/m3 | – | –
298.15 K, 65000 kPa | 947.7 ± 0.29 kg/m3 | – | –
300.65 K, 100 kPa | 896.4 ± 0.51 kg/m3 | 1184.1 ± 0.71 | 0.4774 ± 0.006
303.15 K, 100 kPa | 893.64 ± 0.51 kg/m3 and 893.58 ± 0.23 kg/m3 | 1172.5 ± 0.71 | 0.4637 ± 0.0059
303.15 K, 2000 kPa | 895.61 ± 0.23 kg/m3 | – | –
303.15 K, 5000 kPa | 898.41 ± 0.23 kg/m3 | – | –
303.15 K, 7000 kPa | 900.35 ± 0.24 kg/m3 | – | –
303.15 K, 10000 kPa | 903.06 ± 0.24 kg/m3 | – | –
303.15 K, 15000 kPa | 907.56 ± 0.25 kg/m3 | – | –
303.15 K, 20000 kPa | 911.72 ± 0.26 kg/m3 | – | –
303.15 K, 25000 kPa | 915.8 ± 0.26 kg/m3 | – | –
303.15 K, 30000 kPa | 919.58 ± 0.27 kg/m3 | – | –
303.15 K, 35000 kPa | 923.37 ± 0.28 kg/m3 | – | –
303.15 K, 40000 kPa | 927 ± 0.28 kg/m3 | – | –
303.15 K, 45000 kPa | 930.47 ± 0.29 kg/m3 | – | –
303.15 K, 50000 kPa | 933.84 ± 0.29 kg/m3 | – | –
303.15 K, 55000 kPa | 937.1 ± 0.29 kg/m3 | – | –
303.15 K, 60000 kPa | 940.35 ± 0.29 kg/m3 | – | –
303.15 K, 65000 kPa | 943.48 ± 0.3 kg/m3 | – | –
305.65 K, 100 kPa | 890.87 ± 0.51 kg/m3 | 1161.8 ± 0.71 | 0.45 ± 0.0059
308.15 K, 100 kPa | 888.1 ± 0.51 kg/m3 and 888.06 ± 0.23 kg/m3 | 1151.5 ± 0.71 | 0.4372 ± 0.0059
308.15 K, 2000 kPa | 890.15 ± 0.23 kg/m3 | – | –
308.15 K, 5000 kPa | 893.04 ± 0.23 kg/m3 | – | –
308.15 K, 7000 kPa | 895.02 ± 0.24 kg/m3 | – | –
308.15 K, 10000 kPa | 897.93 ± 0.24 kg/m3 | – | –
308.15 K, 15000 kPa | 902.45 ± 0.25 kg/m3 | – | –
308.15 K, 20000 kPa | 906.8 ± 0.26 kg/m3 | – | –
308.15 K, 25000 kPa | 910.98 ± 0.27 kg/m3 | – | –
308.15 K, 30000 kPa | 914.84 ± 0.27 kg/m3 | – | –
308.15 K, 35000 kPa | 918.68 ± 0.28 kg/m3 | – | –
308.15 K, 40000 kPa | 922.47 ± 0.29 kg/m3 | – | –
308.15 K, 45000 kPa | 925.95 ± 0.29 kg/m3 | – | –
308.15 K, 50000 kPa | 929.45 ± 0.3 kg/m3 | – | –
308.15 K, 55000 kPa | 932.76 ± 0.3 kg/m3 | – | –
308.15 K, 60000 kPa | 936.18 ± 0.3 kg/m3 | – | –
308.15 K, 65000 kPa | 939.24 ± 0.3 kg/m3 | – | –
310.65 K, 100 kPa | 885.31 ± 0.51 kg/m3 | 1140.6 ± 0.71 | 0.4258 ± 0.0058
313.15 K, 100 kPa | – | – | 0.4149 ± 0.0058
